{"source": "patent US9133115B2", "about": "(ACHILLION PHARMACEUTICALS, INC., priority 2008, dated 2015)", "data": [{"system": "HCV replicon", "assay": "HCV replicon replication assay (NPT ELISA) in Huh-7 replicon-containing cells", "format": "cell-based", "settings": "Hepatitis C virus, 72 h; HCV replicon in Huh-7 cells, three days incubation; read-out: EC50", "description": "Compounds claimed herein are tested for the ability to inhibit viral replication of the Hepatitis C replicon in cultured cells in which the HCV replicon construct has been incorporated. The HCV replicon system was described by Bartenschlager, et. al (Science, 285, pp. 110-113 (1999)). The replicon system is predictive of in vivo anti-HCV activity; compounds that are active in humans uniformly evidence activity in the replicon assay.\nIn this assay HCV replicon containing cells are treated with different concentrations of the test compound to ascertain the ability of the test compound to suppress replication of the HCV replicon. As a positive control, HCV replicon-containing cells are treated with different concentrations of interferon alpha, a known inhibitor of HCV replication. The replicon assay system includes Neomycin Phosphotransferase (NPT) as a component of the replicon itself in order to detect the transcription of replicon gene products in the host cell. Cells in which the HCV replicon is actively replicating have high levels of NPT; the level of NPT is proportional to HCV replication. […] The NPT level of each sample is measured using a captured ELISA.\nA protocol for testing compounds for the ability to inhibit viral replication of the Hepatitis C replicon cultured cells in which the replicon construct has been incorporated, follows.\nThe HCV replicon contains, 5′-3′, the HCV-IRES, the neomycin phosphotransferase (neo) gene, the IRES of encephalomyocarditis virus, which directs translation of HCV sequences NS3 to NS5B, and the 3′-NTR. The sequence of the HCV replicon has been deposited in GenBank (Accession no. AJ242652).\nThe replicon is transfected into Huh-7 cells using standard methods such as electroporation.\nThe equipment and materials include, but are not limited to, Huh-7 HCV replicon-containing cells, maintenance media (DMEM (Dulbecco's modified Eagle media) supplemented with 10% FBS, L-glutamine, non-essential amino acids, penicillin (100 units/ml), streptomycin (100 micrograms/ml), and 500 micrograms/ml of Geneticin (G418), screening media (DMEM supplemented with 10% FBS, L-glutamine, non-essential amino acids, penicillin (100 units/ml) and streptomycin (100 micrograms/ml)), 96 well tissue culture plates (flat bottom), 96 well plates (U bottom for drug dilution), Interferon alpha for positive control, fixation reagent (such as methanol: acetone), primary antibody (rabbit anti-NPTII), secondary antibody: Eu-N1 l, and enhancement solution.\nHCV replicon-containing cells support high levels of viral RNA replicon replication when their density is suitable. Over-confluency causes decreased viral RNA replication. Therefore, cells must be kept growing in log phase in the presence of 500 micrograms/ml of G418. Generally, cells should be passed twice a week at 1: 4-6 dilution. Cell maintenance is conducted as follows:\nHCV replicon-containing cells are examined under a microscope to ensure that cells growing well. Cells are rinsed once with PBS and 2 ml trypsin is added. The cell/trypsin mixture is incubated at 37° C. in a CO2 incubator for 3-5 minutes. After incubation 10 ml of complete media is added to stop the trypsinization reaction. Cells are blown gently, put into a 15 ml tube, and spun at 1200 rpm for 4 minutes. The trypsin/medium solution is removed. Medium (5 ml) is added and the cells are mixed carefully. The cells are counted.\nThe cells are then seeded onto 96-well plates at a density of 6000-7500 cells/100 microliters/well (6-7.5×10^5 cells/10 ml/plate). The plates are then incubated at 37° C. in a 5% CO2 incubator.\nCells are examined under a microscope approximated 24 hours after seeding and prior to adding drugs. If counting and dilution were performed correctly, cells are 60-70% confluent and nearly all cells should attach and spread evenly in the well.\nHCV replicon-containing cells are rinsed with once PBS once; 2 mls of trypsin are then added. Cells are incubated at 37° C. in a 5% CO2 incubator for 3-5 minutes. […]", "units": {"EC50": "µM"}, "values": [{"smiles": "C=C[C@@H]1CC1(NC(=O)[C@@H]1C[C@@H](Oc2nc(-c3ccccn3)cc3c(Cl)c(OC)ccc23)CN1C(=O)[C@@H](CC(=O)N1CCC(C(F)(F)F)CC1)C(C)(C)C)C(=O)NS(=O)(=O)C1CC1", "note": "(mixture of isomers) [Compound 245, (2S,4R)-1-((S)-2-tert-butyl-4-oxo-4-(4-(trifluoro-methyl)piperidin-1-yl)butanoyl)-4-(5-chloro-6-methoxy-3-(pyridin-2-yl)isoquinolin-1-yloxy)-N-((S)-1-(cyclopropyl-sulfonylcarbamoyl)-2-vinylcyclo-propyl)pyrrolidine-2-carboxamide]", "EC50": "< 1"}, {"smiles": "C=C[C@@H]1C[C@]1(NC(=O)[C@@H]1C[C@@H](Oc2cc(-c3ccccc3)nc3cc(OC)ccc23)CN1C(=O)[C@@H](CC(=O)N1CCCC1C(=O)Nc1nccs1)C(C)(C)C)C(=O)NS(=O)(=O)C1CC1", "note": "(stereo partly drawn) [Compound 212, (2S,4R)-1-((S)-2-tert-butyl-4-oxo-4-((S)-2-(thiazol-2-ylcarbamoyl)pyr-rolidin-1-yl)butanoyl)-N-((1R)-1-(cyclo-propylsulfonyl-carbamoyl)-2-vinylcyclopropyl)-4-(7-methoxy-2-phenylquinolin-4-yloxy)pyrrolidine-2-carboxamide]", "EC50": "< 1"}, {"smiles": "C=C[C@@H]1C[C@]1(NC(=O)[C@@H]1C[C@@H](Oc2cc(-c3ccccc3)nc3c(C)c(OC)ccc23)CN1C(=O)[C@@H](CC(=O)N1CCC(C(F)(F)F)CC1)C(C)(C)C)C(=O)NS(=O)(=O)C1CC1", "note": "[Compound 240, (2S,4R)-1-((S)-2-tert-butyl-4-oxo-4-(4-(trifluoro-methyl)piperidin-1-yl)butanoyl)-N-((1R)-1-(cyclopropyl-sulfonylcarbamoyl)-2-vinylcyclopropyl)-4-(7-methoxy-8-methyl-2-phenylquinolin-4-yloxy)pyrrolidine-2-carboxamide]", "EC50": "< 1"}, {"smiles": "C=C[C@@H]1C[C@]1(NC(=O)[C@@H]1C[C@@H](Oc2cc(-c3ccccc3)nc3cc(OC)ccc23)CN1C(=O)[C@@H](CC(=O)N1CCC(CNC(=O)OC(C)(C)C)CC1)C(C)(C)C)C(=O)NS(=O)(=O)C1CC1", "note": "[Compound 76, tert-butyl (1-((S)-3-((2S,4R)-2-((1R,2S)-1-(cyclopropylsulfonyl-carbamoyl)-2-vinylcyclopropyl-carbamoyl)-4-(7-methoxy-2-phenylquinolin-4-yloxy)pyrrolidine-1-carbonyl)-4,4-dimethylpentano-yl)piperidin-4-yl)methylcarbamate]", "EC50": "< 1"}, {"smiles": "CCC[C@H](NC(=O)[C@@H]1C[C@@H](Oc2cc(-c3ccccc3)nc3cc(OC)ccc23)CN1C(=O)[C@@H](CC(=O)N1CCCCC1)C(C)(C)C)C(=O)NS(=O)(=O)C1CC1", "note": "[Compound 113, (2S,4R)-1-((S)-2-tert-butyl-4-oxo-4-(piperidin-1-yl)butanoyl)-N-((S)-1-(cyclopropanesulfon-amido)-1-oxopentan-2-yl)-4-(7-methoxy-2-phenylquinolin-4-yloxy)pyrrolidine-2-carboxamide]", "EC50": "1 to 10"}, {"smiles": "C=C[C@@H]1C[C@]1(NC(=O)[C@@H]1C[C@@H](Oc2cc(-c3ccccn3)nc3c4c(ccc23)CCC4)CN1C(=O)[C@@H](CC(=O)N1CCCCC1)C(C)(C)C)C(=O)NS(=O)(=O)C1CC1", "note": "[Compound 242, (2S,4R)-1-((S)-2-tert-butyl-4-oxo-4-(piperidin-1-yl)butanoyl)-N-((2S)-1-(cyclopropyl-sulfonylcarbamoyl)-2-vinylcyclopropyl)-4-(2-(pyridin-2-yl)-8,9-dihydro-7H-cyclopenta[h]quino-lin-4-yloxy)pyrrolidine-2-carboxamide]", "EC50": "< 1"}, {"smiles": "C=CC1C[C@]1(NC(=O)[C@@H]1C[C@@H](NC(=O)c2cc(-c3ccccc3)nc3ccccc23)CN1C(=O)[C@@H](CC(=O)N1CCC(C(F)(F)F)CC1)C(C)(C)C)C(=O)NS(=O)(=O)C1CC1", "note": "(stereo partly drawn) [Compound 199, N-((3R,5S)-1-((S)-2-tert-butyl-4-oxo-4-(4-(trifluoromethyl)piper-idin-1-yl)butanoyl)-5-((1R,2S)-1-(cyclo-propylsulfonyl-carbamoyl)-2-vinyl-cyclopropyl-carbamoyl)pyrrolidin-3-yl)-2-phenylquinoline-4-carboxamide]", "EC50": "< 1"}, {"smiles": "C=C[C@@H]1C[C@]1(NC(=O)[C@@H]1C[C@@H](Oc2cc(-c3ccccn3)nc3c(Cl)c(OC)ccc23)CN1C(=O)[C@@H](CC(=O)N1CCCCC1)C(C)(C)C)C(=O)NS(=O)(=O)C1CC1", "note": "[Compound 179, (2S,4R)-1-((S)-2-tert-butyl-4-oxo-4-(piperidin-1-yl)butanoyl)-4-(8-chloro-7-methoxy-2-(pyridin-2-yl)quinolin-4-yloxy)-N-((1R,2S)-1-(cyclopropyl-sulfonylcarbamoyl)-2-vinylcyclo-propyl)pyrrolidine-2-carboxamide]", "EC50": "< 1"}, {"smiles": "C=C[C@@H]1C[C@]1(NC(=O)[C@@H]1C[C@@H](Oc2cc(-c3ccccn3)nc3cc(OC)ccc23)CN1C(=O)[C@@H](CC(=O)N1CCC(C(F)(F)F)CC1)C(C)(C)C)C(=O)NS(=O)(=O)C1CC1", "note": "[Compound 215, (2S,4R)-1-((S)-2-tert-butyl-4-oxo-4-(4-(trifluoro-methyl)piperidin-1-yl)butanoyl)-N-((1R)-1-(cyclopropyl-sulfonylcarbamoyl)-2-vinylcyclopropyl)-4-(7-methoxy-2-(pyridin-2-yl)quinolin-4-yloxy)pyrrolidine-2-carboxamide]", "EC50": "< 1"}, {"smiles": "C=C[C@H]1C[C@]1(NC(=O)[C@@H]1C[C@@H](Oc2cc(-c3ccccc3)nc3cc(OC)ccc23)CN1C(=O)C[C@@H](CC1CCCC1)C(=O)N1CCCCC1)C(=O)NS(=O)(=O)C1CC1", "note": "[Compound 56, (2S,4R)-1-((R)-3-(cyclopentyl-methyl)-4-oxo-4-(piperidin-1-yl)butanoyl)-N-((1R,2R)-1-(cyclopropyl-sulfonylcarbamoyl)-2-vinylcyclopropyl)-4-(7-methoxy-2-phenylquinolin-4-yloxy)pyrrolidine-2-carboxamide]", "EC50": "1 to 10"}, {"smiles": "C=C[C@@H]1C[C@]1(NC(=O)[C@@H]1C[C@@H](Oc2cc(-c3ccccn3)nc3c(Cl)c(OC)ccc23)CN1C(=O)[C@@H](CC(=O)N1CCCC1C(F)(F)F)C(C)(C)C)C(=O)NS(=O)(=O)C1CC1", "note": "(stereo partly drawn) [Compound 207, (2S,4R)-1-((2S)-2-tert-butyl-4-oxo-4-(2-(trifluoromethyl)pyr-rolidin-1-yl)butanoyl)-4-(8-chloro-7-methoxy-2-(pyridin-2-yl)quinolin-4-yloxy)-N-((1R)-1-(cyclopropylsulfonyl-carbamoyl)-2-vinylcyclopropyl)pyr-rolidine-2-carboxamide]", "EC50": "< 1"}, {"smiles": "C=C[C@@H]1C[C@]1(NC(=O)[C@@H]1C[C@@H](Oc2cc(-c3ccccc3)nc3cc(OC)ccc23)CN1C(=O)[C@@H](CC(=O)N1CCCC[C@H]1c1cccnc1)C(C)(C)C)C(=O)NS(=O)(=O)C1CC1", "note": "[Compound 140, (2S,4R)-1-((S)-2-tert-butyl-4-oxo-4-((S)-2-(pyridin-3-yl)piperidin-1-yl)butanoyl)-N-((1R,2S)-1-(cyclo-propylsulfonyl-carbamoyl)-2-vinylcyclopropyl)-4-(7-methoxy-2-phenylquinolin-4-yloxy)pyrrolidine-2-carboxamide]", "EC50": "< 1"}, {"smiles": "C=CC1C[C@]1(NC(=O)[C@@H]1C[C@@H](Oc2cc(-c3ccccc3)nc3cc(OC)ccc23)CN1C(=O)[C@@H](CC(=O)N1CCN(C(=O)OC(C)(C)C)CC1)C(C)(C)C)C(=O)NS(=O)(=O)C1CC1", "note": "(stereo partly drawn) [Compound 164, tert-butyl 4-((S)-3-((2S,4R)-2-((1R,2S)-1-(cyclopropyl-sulfonylcarbamoyl)-2-vinylcyclopropyl-carbamoyl)-4-(7-methoxy-2-phenylquinolin-4-yloxy)pyrrolidine-1-carbonyl)-4,4-dime-thylpentanoyl)piper-azine-1-carboxylate]", "EC50": "< 1"}]}]}
